Measurements reported in ChEMBL document CHEMBL1153701, “Synthesis and evaluation of antiallodynic and anticonvulsant activity of novel amide and urea derivatives of valproic acid analogues” (2009).
The source made the active and inactive calls. The rule behind the calls is not given here.

Columns and labels:
[1] = test system: Mus musculus; assay: Antiepileptic activity in CF1 mouse assessed as inhibition of subcutaneous pentylenetetrazole-induced seizures at 100 mg/kg, ip after 0.5 hrs; assay type: functional, organism-based; set-up: dose 100 mg/kg
[2] = test system: Mus musculus; assay: Antiepileptic activity in CF1 mouse assessed as inhibition of maximal electroshock-induced seizures at 100 mg/kg, ip after 0.5 hrs; assay type: functional, organism-based; set-up: dose 100 mg/kg
[3] = test system: Mus musculus; assay: Neurotoxicity in CF1 mouse assessed as protection against motor impairment at 100 mg/kg, ip after 0.5 hrs by rotarod test; assay type: functional, organism-based; set-up: dose 100 mg/kg
[4] = test system: Mus musculus; assay: Antiepileptic activity in CF1 mouse assessed as inhibition of maximal electroshock-induced seizures at 30 mg/kg, ip after 4 hrs; assay type: functional, organism-based; set-up: dose 30 mg/kg
[5] = test system: Rattus norvegicus; assay: Antiallodynic activity in ip dosed rat assessed as protection against spinal nerve ligation-induced neuropathic pain; assay type: functional
[6] = test system: Mus musculus; assay: Antiepileptic activity in CF1 mouse assessed as inhibition of subcutaneous pentylenetetrazole-induced seizures at 30 mg/kg, ip after 0.5 hrs; assay type: functional, organism-based; set-up: dose 30 mg/kg
[7] = test system: Mus musculus; assay: Antiepileptic activity in CF1 mouse assessed as inhibition of maximal electroshock-induced seizures at 30 mg/kg, ip after 0.5 hrs; assay type: functional, organism-based; set-up: dose 30 mg/kg
[8] = test system: Mus musculus; assay: Antiepileptic activity in CF1 mouse assessed as inhibition of subcutaneous pentylenetetrazole-induced seizures at 300 mg/kg, ip after 4 hrs; assay type: functional, organism-based; set-up: dose 300 mg/kg
[9] = test system: Rattus norvegicus; assay: Anticonvulsant activity in ip dosed albino Sprague-Dawley rat assessed as protection against pilocarpine-induced seizure treated after 30 mins of pilcarpine challenge; assay type: functional; details: 0.5 h
[10] = test system: Mus musculus; assay: Neurotoxicity in CF1 mouse assessed as protection against motor impairment at 30 mg/kg, ip after 4 hrs by rotarod test; assay type: functional, organism-based; set-up: dose 30 mg/kg
[11] = test system: Rattus norvegicus; assay: Anticonvulsant activity in albino Sprague-Dawley rat assessed as protection against pilocarpine-induced seizure at 37.5 mg/kg, ip; assay type: functional, organism-based; set-up: dose 37.5 mg/kg
[12] = test system: Rattus norvegicus; assay: Anticonvulsant activity in albino Sprague-Dawley rat assessed as protection against pilocarpine-induced seizure at 75 mg/kg, ip; assay type: functional, organism-based; set-up: dose 75 mg/kg
[13] = test system: Mus musculus; assay: Antiepileptic activity in CF1 mouse assessed as inhibition of subcutaneous pentylenetetrazole-induced seizures at 300 mg/kg, ip after 0.5 hrs; assay type: functional, organism-based; set-up: dose 300 mg/kg
[14] = test system: Mus musculus; assay: Neurotoxicity in CF1 mouse assessed as protection against motor impairment at 100 mg/kg, ip after 4 hrs by rotarod test; assay type: functional, organism-based; set-up: dose 100 mg/kg
[15] = species on record: Rattus norvegicus; assay: Ratio of ED50 for antiallodynic activity in rat assessed as protection against spinal nerve ligation-induced neuropathic pain to ED50 for antiepileptic activity in rat by maximal electroshock-induced seizures assay; assay type: functional
[16] = test system: Mus musculus; assay: Antiepileptic activity in CF1 mouse assessed as inhibition of subcutaneous pentylenetetrazole-induced seizures at 100 mg/kg, ip after 4 hrs; assay type: functional, organism-based; set-up: dose 100 mg/kg
[17] = test system: Mus musculus; assay: Antiepileptic activity in CF1 mouse assessed as inhibition of maximal electroshock-induced seizures at 300 mg/kg, ip after 0.5 hrs; assay type: functional, organism-based; set-up: dose 300 mg/kg
[18] = test system: Mus musculus; assay: Neurotoxicity in CF1 mouse assessed as protection against motor impairment at 300 mg/kg, ip after 4 hrs by rotarod test; assay type: functional, organism-based; set-up: dose 300 mg/kg
[19] = test system: Mus musculus; assay: Antiepileptic activity in CF1 mouse assessed as inhibition of maximal electroshock-induced seizures at 100 mg/kg, ip after 4 hrs; assay type: functional, organism-based; set-up: dose 100 mg/kg
[20] = test system: Mus musculus; assay: Neurotoxicity in CF1 mouse assessed as protection against motor impairment at 300 mg/kg, ip after 0.5 hrs by rotarod test; assay type: functional, organism-based; set-up: dose 300 mg/kg
[21] = test system: Mus musculus; assay: Antiepileptic activity in CF1 mouse assessed as inhibition of maximal electroshock-induced seizures at 300 mg/kg, ip after 4 hrs; assay type: functional, organism-based; set-up: dose 300 mg/kg
[22] = test system: Mus musculus; assay: Antiepileptic activity in CF1 mouse assessed as inhibition of subcutaneous pentylenetetrazole-induced seizures at 30 mg/kg, ip after 4 hrs; assay type: functional, organism-based; set-up: dose 30 mg/kg
[23] = test system: Mus musculus; assay: Neurotoxicity in CF1 mouse assessed as protection against motor impairment at 30 mg/kg, ip after 0.5 hrs by rotarod test; assay type: functional, organism-based; set-up: dose 30 mg/kg
[24] = test system: Rattus norvegicus; assay: Anticonvulsant activity in albino Sprague-Dawley rat assessed as protection against pilocarpine-induced seizure at 100 mg/kg, ip; assay type: functional, organism-based; set-up: dose 100 mg/kg
[25] = test system: Mus musculus; assay: Antiepileptic activity in ip dosed CF1 mouse assessed as inhibition of maximal electroshock-induced seizures; assay type: functional
[26] = test system: Mus musculus; assay: Antiepileptic activity in ip dosed CF1 mouse assessed as inhibition of subcutaneous pentylenetetrazole-induced seizures; assay type: functional
[27] = test system: Rattus norvegicus; assay: Antiallodynic activity in rat assessed as protection against spinal nerve ligation-induced neuropathic pain at 80 mg/kg, ip after 30 mins; assay type: functional, organism-based; set-up: dose 80 mg/kg
[28] = test system: Rattus norvegicus; assay: Antiallodynic activity in rat assessed as protection against spinal nerve ligation-induced neuropathic pain at 80 mg/kg, ip after 120 mins; assay type: functional, organism-based; set-up: dose 80 mg/kg
[29] = test system: Rattus norvegicus; assay: Antiallodynic activity in rat assessed as protection against spinal nerve ligation-induced neuropathic pain at 80 mg/kg, ip after 60 mins; assay type: functional, organism-based; set-up: dose 80 mg/kg
[30] = test system: Rattus norvegicus; assay: Antiallodynic activity in rat assessed as protection against spinal nerve ligation-induced neuropathic pain at 80 mg/kg, ip after 180 mins; assay type: functional, organism-based; set-up: dose 80 mg/kg
[31] = test system: Rattus norvegicus; assay: Anticonvulsant activity in albino Sprague-Dawley rat assessed as protection against pilocarpine-induced seizure at 200 mg/kg, ip treated after 30 mins of pilcarpine challenge; assay type: functional, organism-based; set-up: dose 200 mg/kg

CCC(C)C(CC)C(=O)NC(N)=O (stereo not given) [CAPURIDE]
Activity [1]: Active | Activity [2]: Active | Activity [3]: Active | Activity [4]: inactive | ED50 [5]: 49 mg/kg | Activity [6]: inactive | Activity [7]: inactive | Activity [8]: Active | ED50 [9]: 23 mg/kg | Activity [10]: inactive | Activity [11]: Active | Activity [12]: Active | Activity [13]: Active | Activity [14]: inactive | ratio [15]: 0.49 | Activity [16]: inactive | Activity [17]: Active | Activity [18]: Active | Activity [19]: inactive | Activity [20]: Active | Activity [21]: Active | Activity [22]: inactive

CC(C)(C)CC(=O)NC(N)=O
Activity [2]: inactive | Activity [23]: inactive | Activity [4]: inactive | Activity [24]: Active | ED50 [5]: 74 mg/kg | Activity [6]: inactive | Activity [7]: inactive | Activity [8]: inactive | Activity [10]: inactive | Activity [13]: Active | Activity [14]: inactive | ratio [15]: 0.86 | Activity [16]: inactive | ED50 [25]: 64 mg/kg | Activity [17]: Active | Activity [18]: inactive | Activity [19]: inactive | Activity [20]: Active | Activity [21]: inactive | Activity [22]: inactive

CCCCC(CC)C(N)=O (stereo not given)
Activity [1]: inactive | Activity [2]: Active | Activity [23]: inactive | Activity [3]: inactive | Activity [4]: inactive | ED50 [26]: 103 mg/kg | Activity [6]: inactive | Activity [7]: inactive | Activity [10]: inactive | Activity [14]: inactive | Activity [16]: inactive | Activity [19]: inactive | Activity [20]: Active | Activity [21]: inactive | Activity [22]: inactive

CCCC(C(=O)NC(N)=O)C(C)C (stereo not given)
Activity [1]: Active | Activity [2]: inactive | Activity [4]: inactive | Activity [27]: inactive | Activity [28]: inactive | Activity [6]: inactive | Activity [7]: inactive | Activity [8]: inactive | Activity [13]: Active | Activity [16]: inactive | Activity [17]: inactive | Activity [29]: inactive | Activity [18]: inactive | Activity [19]: inactive | Activity [21]: Active | Activity [30]: inactive | Activity [31]: Active | Activity [22]: inactive
